Read-outs that look alike come from different tables or passages of the source.

Experimental findings from patent US20250163043A1 (TRANSTHERA SCIENCES (NANJING), INC., priority 2021, published 2025) are described below.

Common to all, as to format: biochemical
For one assay, the target named is CDK2/CycA2 (Homo sapiens, UniProt P24941). Briefly: ADP-Glo kinase assay on CDK enzymatic activity, CDK2/CycA2. The settings on record: 10 concentrations from 10 μM, 4-fold, 60 min room temperature. An excerpt:
(§1) Test samples: the compounds of the present invention, having structures shown above.
(§2) ADP-Glo Kinase Assay (ADP-Glo kinase kit), DMSO (dimethyl sulfoxide), CDK9/CycT1 (cyclin-dependent kinase 9/cyclin T1), CDK tide (cyclin-dependent kinase substrate peptide fragments), CDK1/CycE1 (cyclin-dependent kinase 1/cyclin E1), CDK2/CycA2 (cyclin-dependent kinase 2/cyclin A2), CDK3/CycE1 (cyclin-dependent kinase 3/cyclin E1), CDK4/CycD3 (cyclin-dependent kinase 4/cyclin D3), CDK5/p25NCK (cyclin-dependent kinase 5/p25), and AZD 4573.
(§3) A 384-well white plate, a 96-well plate, a microplate oscillator, a centrifuge, and a microplate reader.
(§4) The compounds were dissolved in DMSO and diluted 4-fold in the 96-well plate to obtain stock solutions with 10 concentration gradients, and added into a 384-well plate system to obtain a series of 10 concentration gradients of compound solutions with final concentrations of 10 μM starting and 4-fold gradient decreasing. 1 μM AZD4573 was used as compound positive control (PC) and 0.5% DMSO as solvent vehicle control (VC), ten duplicated wells each for PC and VC.
(§5) 1 μL of compound solution and 2 μL of 2× kinase solution were transferred to each well, and the plate was centrifuged at 1000 g for 30 s and left at room temperature for 10 min. A mixture of 2× substrate and ATP was prepared in 1× kinase buffer. The reaction was started after adding 2 μL of substrate and ATP into the plate. The plate was centrifuged at 1000 g for 30 s. The assay plate was closed and left at room temperature for 60 min. The reaction system was added with 4 μL of ADP Glo reagent, centrifuged at 1000 rpm for 1 min, and incubated at room temperature for 40 min. The reaction system was added with 8 μL of kinase assay reagent, centrifuged at 1000 rpm for 1 min and incubated at room temperature for 40 min. The […] was read on Biotek.
(§6) The inhibition rate was calculated according to the following formula: […]
(§7) Lumcmpd: compound fluorescence reading; Lumpositive: average value of the fluorescence reading of positive compound control; Lumvehicle: average value of the fluorescence reading of solvent vehicle control.
(§8) IC50 values were fitted using GraphPad 7.0 based on inhibition rates of compounds at different concentrations.
In general terms: ADP-Glo turns the ADP formed in a reaction into a luminescent signal.

Another assay has as its target CDK1/CycE1 (Homo sapiens, UniProt P06493). Kind of assay: ADP-Glo kinase assay on CDK enzymatic activity, CDK1/CycE1. The protocol:
as §1, §3, §4, §5, §6, §7, §8

The target of another assay is CDK9/CycT1 (Homo sapiens, UniProt P50750). Briefly: ADP-Glo kinase assay on CDK enzymatic activity, CDK9/CycT1. The settings on record: 10 concentrations from 10 μM, 4-fold, 60 min room temperature.
Chain of CDK9/CycT1 (P50750 whole entry): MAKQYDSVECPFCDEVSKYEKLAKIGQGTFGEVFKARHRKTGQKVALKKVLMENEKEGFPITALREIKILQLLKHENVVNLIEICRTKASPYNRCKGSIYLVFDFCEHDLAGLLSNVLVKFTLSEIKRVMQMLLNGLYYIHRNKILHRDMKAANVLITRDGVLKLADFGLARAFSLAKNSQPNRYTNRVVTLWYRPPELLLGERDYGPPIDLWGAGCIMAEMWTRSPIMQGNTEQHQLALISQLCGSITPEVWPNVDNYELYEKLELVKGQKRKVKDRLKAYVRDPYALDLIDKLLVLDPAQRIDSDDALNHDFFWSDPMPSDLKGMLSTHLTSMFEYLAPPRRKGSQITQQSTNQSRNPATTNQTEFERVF
Chain of CDK9/CycT1 (O60563 whole entry partner): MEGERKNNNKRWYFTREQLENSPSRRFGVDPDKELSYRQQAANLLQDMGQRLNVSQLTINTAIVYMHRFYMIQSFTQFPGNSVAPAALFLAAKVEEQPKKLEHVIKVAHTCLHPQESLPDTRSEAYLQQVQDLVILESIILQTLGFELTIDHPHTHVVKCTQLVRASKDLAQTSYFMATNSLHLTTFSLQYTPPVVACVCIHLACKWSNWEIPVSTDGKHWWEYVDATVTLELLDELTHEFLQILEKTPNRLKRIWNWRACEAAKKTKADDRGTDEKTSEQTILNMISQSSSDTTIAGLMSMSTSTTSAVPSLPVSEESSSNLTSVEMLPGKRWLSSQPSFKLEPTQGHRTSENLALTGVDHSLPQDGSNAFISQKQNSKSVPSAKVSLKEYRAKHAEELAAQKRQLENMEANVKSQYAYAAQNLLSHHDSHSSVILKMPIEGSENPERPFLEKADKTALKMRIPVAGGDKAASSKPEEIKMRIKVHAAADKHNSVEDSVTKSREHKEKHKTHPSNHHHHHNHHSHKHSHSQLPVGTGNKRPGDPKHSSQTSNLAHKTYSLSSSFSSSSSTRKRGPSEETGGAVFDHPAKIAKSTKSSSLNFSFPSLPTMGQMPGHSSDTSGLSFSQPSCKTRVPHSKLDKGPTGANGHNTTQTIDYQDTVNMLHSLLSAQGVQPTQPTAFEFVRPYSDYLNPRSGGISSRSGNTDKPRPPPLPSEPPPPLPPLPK
Text: as §1, §2, §3, §4, §5, §6, §7, §8

Setting [1] is: ADP-Glo, 10 concentrations from 10 μM, 4-fold, 60 min room temperature, read-out: CDK1/CycE1/nM (IC50).

Chain of CDK1/CycE1 (P06493 whole entry, species assumed): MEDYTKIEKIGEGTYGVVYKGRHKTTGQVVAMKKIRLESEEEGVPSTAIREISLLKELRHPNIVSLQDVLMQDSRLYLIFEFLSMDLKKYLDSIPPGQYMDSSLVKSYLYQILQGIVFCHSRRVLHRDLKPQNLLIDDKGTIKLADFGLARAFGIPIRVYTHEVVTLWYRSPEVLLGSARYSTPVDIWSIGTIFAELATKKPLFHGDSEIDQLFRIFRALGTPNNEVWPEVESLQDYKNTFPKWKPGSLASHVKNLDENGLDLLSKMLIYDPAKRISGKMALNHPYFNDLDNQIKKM
Chain of CDK1/CycE1 (P24864 whole entry partner, species assumed): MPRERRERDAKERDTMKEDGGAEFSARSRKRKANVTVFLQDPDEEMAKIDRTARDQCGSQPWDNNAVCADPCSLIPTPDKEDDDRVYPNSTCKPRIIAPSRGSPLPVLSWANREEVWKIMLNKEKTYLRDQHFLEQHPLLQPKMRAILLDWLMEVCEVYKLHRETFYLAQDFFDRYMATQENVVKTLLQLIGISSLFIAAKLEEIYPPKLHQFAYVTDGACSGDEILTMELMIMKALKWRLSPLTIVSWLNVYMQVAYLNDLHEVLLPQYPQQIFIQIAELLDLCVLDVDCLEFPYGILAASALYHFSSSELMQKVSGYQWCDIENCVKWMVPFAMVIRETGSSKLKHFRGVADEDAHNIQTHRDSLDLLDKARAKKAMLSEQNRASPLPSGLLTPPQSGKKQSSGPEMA

On to `CC(C)Nc1nc(C#N)cc2cnc(N[C@H]3C[C@@H](O)C3)nc12` [Compound 133, 2-(((1s,3s)-3-hydroxycyclobutyl)amino)-8-(isopropylamino)pyrido[3,4-d]pyrimidine-6-carbonitrile], for which the IC50 against CDK2/CycA2 worked out at 10 nM; at CDK1/CycE1 (setting [1]) it was 29 nM; at CDK9/CycT1, 2 nM.
The matching figures for `CC(C)Nc1nc(C#N)cc2cnc(N[C@H]3C[C@H](O)C3)nc12` [Compound 134, 2-(((1r,3r)-3-hydroxycyclobutyl)amino)-8-(isopropylamino)pyrido[3,4-d]pyrimidine-6-carbonitrile]: 5 nM, 11 nM and 1 nM.
Consider `CC(C)Nc1nc(C#N)cc2cnc(N[C@H]3CC[C@H](N(C)C)CC3)nc12` [Compound 138, 2-(((1r,4r)-4-(dimethylamino)cyclohexyl)amino)-8-(isopropylamino)pyrido[3,4-d]pyrimidine-6-carbonitrile], for which the IC50 was determined as 49 nM at CDK2/CycA2, 166 nM on CDK1/CycE1 (setting [1]) and 3 nM against CDK9/CycT1.
The matching figures for `CC(C)Nc1nc(C#N)cc2cnc(N[C@H]3CC[C@H](N4CCOCC4)CC3)nc12` [Compound 141, 8-(isopropylamino)-2-(((1r,4r)-4-morpholinocyclohexyl)amino)pyrido[3,4-d]pyrimidine-6-carbonitrile]: 23 nM, 197 nM and 2 nM.
The matching figures for `CC(C)Nc1nc(C(F)F)cc2cnc(Nc3cc(CS(C)(=N)=O)ccn3)cc12` (stereo not shown) [Compound 163, ((2-((7-(difluoromethyl)-5-(isopropylamino)-2,6-naphthyridin-3-yl)amino)pyridin-4-yl)methyl)(methyl)sulfinylimine]: 7 nM, 31 nM and 2 nM.
The matching figures for `CC(C)Nc1nc(C#N)cc2cnc(N[C@H]3C[C@@H](N)C3)cc12` [Compound 164, 7-(((1s,3s)-3-aminocyclobutyl)amino)-1-(isopropylamino)-2,6-naphthyridine-3-carbonitrile]: 135 nM, 138 nM and 1 nM.
For the compound `CC(C)Nc1nc(C#N)cc2cnc(N[C@H]3C[C@H](O)C3)cc12` [Compound 166, 7-(((1r,3r)-3-hydroxycyclobutyl)amino)-1-(isopropylamino)-2,6-naphthyridine-3-carbonitrile], the IC50 against CDK2/CycA2 was determined as 10 nM; on CDK1/CycE1 (setting [1]) it was 14 nM; against CDK9/CycT1, 2 nM.
The matching figures for `CC(=O)N[C@H]1C[C@@H](Nc2cc3c(NC(C)C)nc(C#N)cc3cn2)C1` [Compound 167, N-((1s,3s)-3-((7-cyano-5-(isopropylamino)-2,6-naphthyridin-3-yl)amino)cyclobutyl)acetamide]: 19 nM, 55 nM and 2 nM.
The matching figures for `N#Cc1cc2cnc(N[C@H]3CCCNC3)cc2c(NC2CCCC2)n1` [Compound 168, (S)-1-(cyclopentylamino)-7-(piperidin-3-ylamino)-2,6-naphthyridine-3-carbonitrile]: 125 nM, 63 nM and 1 nM.
Take `N#Cc1cc2cnc(N[C@H]3CCCNC3)cc2c(N2CCCC2)n1` [Compound 169, (S)-7-(piperidin-3-ylamino)-1-(pyrrolidin-1-yl)-2,6-naphthyridine-3-carbonitrile]: the IC50 is 2210 nM against CDK2/CycA2, 798 nM at CDK1/CycE1 (setting [1]) and 5 nM at CDK9/CycT1.
The matching figures for `CC(C)Nc1nc(C#N)cc2cnc(Nc3cc(CS(C)(=N)=O)ccn3)cc12` (stereo not shown) [Compound 170, 1-(isopropylamino)-7-((4-((S-methylsulfonimidoyl)methyl)pyridin-2-yl)amino)-2,6-naphthyridine-3-carbonitrile]: 34 nM, 144 nM and 4 nM.
The matching figures for `CCN(CC)c1nc(C#N)cc2cnc(N[C@H]3CCCNC3)cc12` [Compound 171, (S)-1-(diethylamino)-7-(piperidin-3-ylamino)-2,6-naphthyridine-3-carbonitrile]: 815 nM, 638 nM and 4 nM.
The matching figures for `CC(C)(C)Nc1nc(C#N)cc2cnc(N[C@H]3C[C@@H](N)C3)cc12` [Compound 172, 7-(((1s,3s)-3-aminocyclobutyl)amino)-1-(tert-butylamino)-2,6-naphthyridine-3-carbonitrile]: 287 nM, 395 nM and 1 nM.
On to `N#Cc1cc2cnc(N[C@H]3CC[C@H](N)C3)cc2c(N[C@@H]2CCOC2)n1` [Compound 173, 7-(((1S,3S)-3-aminocyclopentyl)amino)-1-(((R)-tetrahydrofuran-3-yl)amino)-2,6-naphthyridine-3-carbonitrile], for which the IC50 was found to be 436 nM against CDK2/CycA2, 952 nM on CDK1/CycE1 (setting [1]) and 4 nM on CDK9/CycT1.
The matching figures for `N#Cc1cc2cnc(N[C@H]3C[C@@H](N)C3)cc2c(N[C@@H]2CCOC2)n1` [Compound 174, 7-(((1s,3S)-3-aminocyclobutyl)amino)-1-(((R)-tetrahydrofuran-3-yl)amino)-2,6-naphthyridine-3-carbonitrile]: 510 nM, 871 nM and 2 nM.
As to `N#Cc1cc2cnc(N[C@H]3C[C@H](N)C3)cc2c(N[C@@H]2CCOC2)n1` [Compound 179, 7-(((trans)-3-aminocyclobutyl)amino)-1-(((R)-tetrahydrofuran-3-yl)amino)-2,6-naphthyridine-3-carbonitrile], the IC50 against CDK2/CycA2 came to 144 nM; on CDK1/CycE1 (setting [1]), 272 nM; on CDK9/CycT1, 1 nM.
On to `N#Cc1cc2cnc(N[C@H]3CCCNC3)cc2c(C2=CCCCC2)n1` [Compound 180, (S)-1-(cyclohex-1-en-1-yl)-7-(piperidin-3-ylamino)-2,6-naphthyridine-3-carbonitrile], for which the IC50 against CDK2/CycA2 amounted to 844 nM; at CDK1/CycE1 (setting [1]) it was 204 nM; against CDK9/CycT1 it was 7 nM.
The matching figures for `N#Cc1cc2cnc(N[C@H]3CCCNC3)cc2c(C2=CCCC2)n1` [Compound 181]: 153 nM, 518 nM and 7 nM.
`CC(C)Nc1nc(C#N)cc2cnc(N[C@H]3C[C@H](N)C3)cc12` [Compound 183, 7-(((1r,3r)-3-aminocyclobutyl)amino)-1-(isopropylamino)-2,6-naphthyridine-3-carbonitrile]: the IC50 was determined as 28 nM against CDK2/CycA2, 50 nM at CDK1/CycE1 (setting [1]) and 1 nM against CDK9/CycT1.
For the compound `N#Cc1cc2cnc(N[C@H]3CCCNC3)cc2c(OC2CCCC2)n1` [Compound 185, (S)-1-(cyclopentyloxy)-7-(piperidin-3-ylamino)-2,6-naphthyridine-3-carbonitrile], the IC50 against CDK2/CycA2 was determined as 356 nM; at CDK1/CycE1 (setting [1]), 134 nM; at CDK9/CycT1, 3 nM.
The matching figures for `N#Cc1cc2cnc(N[C@H]3CCCNC3)cc2c(C2CCCC2)n1` [Compound 187, (S)-1-cyclopentyl-7-(piperidin-3-ylamino)-2,6-naphthyridine-3-carbonitrile]: 958 nM, 413 nM and 8 nM.
Regarding `CCOc1nc(C#N)cc2cnc(N[C@H]3C[C@H](N)C3)cc12` [Compound 191, 7-(((1r,3r)-3-aminocyclobutyl)amino)-1-ethoxy-2,6-naphthyridine-3-carbonitrile], the IC50 turned out to be 1110 nM at CDK2/CycA2, 1950 nM at CDK1/CycE1 and 5 nM on CDK9/CycT1.
As to `CC(C)Nc1nc(C(F)F)cc2cnc(N[C@H]3C[C@H](N)C3)cc12` [Compound 206, N^7-((1r,3r)-3-aminocyclobutyl)-3-(difluoromethyl)-N^1-isopropyl-2,6-naphthyridine-1,7-diamine], the IC50 at CDK2/CycA2 stood at 6 nM; at CDK1/CycE1 (setting [1]) it was 25 nM; against CDK9/CycT1, 1 nM.
Turning to `CC(C)Oc1nc(C#N)cc2cnc(N[C@H]3C[C@H](N)C3)cc12` [Compound 207, 7-(((1r,3r)-3-aminocyclobutyl)amino)-1-isopropoxy-2,6-naphthyridine-3-carbonitrile], the IC50 was 29 nM on CDK2/CycA2, 126 nM at CDK1/CycE1 (setting [1]) and 1 nM at CDK9/CycT1.
For the compound `CC(C)Oc1nc(C#N)cc2cnc(N[C@H]3CCCNC3)nc12` [Compound C49, (S)-8-isopropoxy-2-(piperidin-3-ylamino)pyrido[3,4-d]pyrimidine-6-carbonitrile], the IC50 at CDK9/CycT1 worked out at 20 nM.
